Literature values, collected in patent US20080020052A1, “Vascular Embolus Of Paclitaxel-Sodium Alginate Microsphere And Its Preparation” (priority 2004, published 2008).

Structure (SMILES): CC(=O)O[C@H]1C(=O)[C@@]2(C)[C@H]([C@H](OC(=O)c3ccccc3)[C@]3(O)C[C@H](OC(=O)[C@H](O)[C@@H](NC(=O)c4ccccc4)c4ccccc4)C(C)=C1C3(C)C)[C@]1(OC(C)=O)CO[C@@H]1C[C@@H]2O [Paclitaxel, paclitaxel]
- plasma and protein binding ratio: 89-98%
